Reference: the NIST ThermoML archive (doi:10.1021/je0501639)
± gives the expanded uncertainty stated by the source.

What was measured:
[1] = xn = mol fraction of the nth substance listed; conditions: 100.8 kPa, Liquid; for viscosity: Falling or rolling sphere viscometry
[2] = refractive index (Na D-line) (dimensionless); xn = mol fraction of the nth substance listed; conditions: 100.8 kPa, Liquid, Standard Abbe refractometry

CC(C)(C)O [2-methylpropan-2-ol] + CCO
Conditions	mass density, 298.15 K [kg/m3]	mass density, 308.15 K [kg/m3]	mass density, 318.15 K [kg/m3]	refractive index, 298.15 K	refractive index, 308.15 K	refractive index, 318.15 K	viscosity, 298.15 K [mPa·s]	viscosity, 308.15 K [mPa·s]	viscosity, 318.15 K [mPa·s]
[1], x2 = 0	780.99 ± 0.31	770.7 ± 0.31	760.05 ± 0.32	–	–	–	4.43 ± 0.04	2.622 ± 0.027	1.708 ± 0.02
[1], x2 = 0.05	782.27 ± 0.3	772.23 ± 0.31	761.94 ± 0.31	–	–	–	4.295 ± 0.039	2.587 ± 0.026	1.73 ± 0.02
[1], x2 = 0.1	782.82 ± 0.3	772.95 ± 0.3	762.82 ± 0.31	–	–	–	4.135 ± 0.037	2.536 ± 0.025	1.719 ± 0.019
[1], x2 = 0.15	783.19 ± 0.29	773.6 ± 0.3	763.53 ± 0.3	–	–	–	3.949 ± 0.035	2.463 ± 0.025	1.698 ± 0.019
[1], x2 = 0.2	783.47 ± 0.29	774.03 ± 0.29	764.14 ± 0.3	–	–	–	3.752 ± 0.033	2.374 ± 0.024	1.662 ± 0.019
[1], x2 = 0.25	783.65 ± 0.29	774.34 ± 0.29	764.59 ± 0.3	–	–	–	3.552 ± 0.032	2.277 ± 0.023	1.618 ± 0.018
[1], x2 = 0.3	783.81 ± 0.28	774.62 ± 0.29	765.01 ± 0.29	–	–	–	3.348 ± 0.03	2.18 ± 0.022	1.568 ± 0.018
[1], x2 = 0.35	783.94 ± 0.28	774.87 ± 0.28	765.41 ± 0.29	–	–	–	3.134 ± 0.028	2.082 ± 0.021	1.515 ± 0.017
[1], x2 = 0.4	784.03 ± 0.28	775.07 ± 0.28	765.74 ± 0.29	–	–	–	2.905 ± 0.026	1.978 ± 0.02	1.456 ± 0.017
[1], x2 = 0.45	784.11 ± 0.27	775.29 ± 0.28	766.04 ± 0.28	–	–	–	2.668 ± 0.024	1.877 ± 0.019	1.395 ± 0.017
[1], x2 = 0.5	784.18 ± 0.27	775.45 ± 0.27	766.31 ± 0.28	–	–	–	2.462 ± 0.023	1.772 ± 0.019	1.332 ± 0.016
[1], x2 = 0.55	784.29 ± 0.27	775.61 ± 0.27	766.58 ± 0.28	–	–	–	2.272 ± 0.021	1.675 ± 0.018	1.272 ± 0.016
[1], x2 = 0.6	784.32 ± 0.26	775.68 ± 0.27	766.72 ± 0.27	–	–	–	2.097 ± 0.02	1.575 ± 0.017	1.213 ± 0.015
[1], x2 = 0.65	784.4 ± 0.26	775.77 ± 0.27	766.87 ± 0.27	–	–	–	1.934 ± 0.019	1.475 ± 0.017	1.153 ± 0.015
[1], x2 = 0.7	784.42 ± 0.26	775.85 ± 0.26	767.01 ± 0.27	–	–	–	1.782 ± 0.018	1.38 ± 0.016	1.092 ± 0.015
[1], x2 = 0.75	784.49 ± 0.26	775.93 ± 0.26	767.15 ± 0.27	–	–	–	1.644 ± 0.017	1.291 ± 0.016	1.032 ± 0.014
[1], x2 = 0.8	784.62 ± 0.25	776.07 ± 0.26	767.27 ± 0.26	–	–	–	1.518 ± 0.017	1.206 ± 0.015	0.974 ± 0.014
[1], x2 = 0.85	784.75 ± 0.25	776.18 ± 0.26	767.41 ± 0.26	–	–	–	1.4 ± 0.016	1.126 ± 0.015	0.919 ± 0.014
[1], x2 = 0.9	784.86 ± 0.25	776.28 ± 0.25	767.51 ± 0.26	–	–	–	1.285 ± 0.015	1.048 ± 0.014	0.862 ± 0.014
[1], x2 = 0.95	785.02 ± 0.25	776.4 ± 0.25	767.6 ± 0.26	–	–	–	1.188 ± 0.015	0.976 ± 0.014	0.805 ± 0.013
[2], x2 = 0	–	–	–	1.38481 ± 0.00033	1.3796 ± 0.00033	1.37416 ± 0.00033	–	–	–
[2], x2 = 0.05	–	–	–	1.38427 ± 0.00033	1.37911 ± 0.00033	1.37378 ± 0.00033	–	–	–
[2], x2 = 0.1	–	–	–	1.38367 ± 0.00033	1.37861 ± 0.00033	1.37336 ± 0.00033	–	–	–
[2], x2 = 0.15	–	–	–	1.38294 ± 0.00032	1.37797 ± 0.00032	1.37284 ± 0.00032	–	–	–
[2], x2 = 0.2	–	–	–	1.38213 ± 0.00032	1.37726 ± 0.00032	1.37224 ± 0.00032	–	–	–
[2], x2 = 0.25	–	–	–	1.38123 ± 0.00032	1.37648 ± 0.00032	1.3715 ± 0.00032	–	–	–
[2], x2 = 0.3	–	–	–	1.38027 ± 0.00032	1.37558 ± 0.00032	1.37072 ± 0.00032	–	–	–
[2], x2 = 0.35	–	–	–	1.37923 ± 0.00032	1.37463 ± 0.00032	1.36984 ± 0.00032	–	–	–
[2], x2 = 0.4	–	–	–	1.37813 ± 0.00032	1.3736 ± 0.00032	1.36891 ± 0.00032	–	–	–
[2], x2 = 0.45	–	–	–	1.37698 ± 0.00032	1.37253 ± 0.00032	1.36791 ± 0.00032	–	–	–
[2], x2 = 0.5	–	–	–	1.37576 ± 0.00032	1.37136 ± 0.00032	1.36682 ± 0.00032	–	–	–
[2], x2 = 0.55	–	–	–	1.37449 ± 0.00032	1.37013 ± 0.00032	1.36567 ± 0.00032	–	–	–
[2], x2 = 0.6	–	–	–	1.37312 ± 0.00032	1.36883 ± 0.00032	1.36442 ± 0.00032	–	–	–
[2], x2 = 0.65	–	–	–	1.37171 ± 0.00032	1.36741 ± 0.00032	1.36304 ± 0.00032	–	–	–
[2], x2 = 0.7	–	–	–	1.37018 ± 0.00032	1.36593 ± 0.00032	1.36162 ± 0.00032	–	–	–
[2], x2 = 0.75	–	–	–	1.36859 ± 0.00032	1.36438 ± 0.00032	1.36007 ± 0.00032	–	–	–
[2], x2 = 0.8	–	–	–	1.3669 ± 0.00032	1.36271 ± 0.00032	1.35848 ± 0.00032	–	–	–
[2], x2 = 0.85	–	–	–	1.36515 ± 0.00031	1.36096 ± 0.00031	1.35677 ± 0.00031	–	–	–
[2], x2 = 0.9	–	–	–	1.36332 ± 0.00031	1.35914 ± 0.00031	1.35498 ± 0.00031	–	–	–
[2], x2 = 0.95	–	–	–	1.36137 ± 0.00031	1.3572 ± 0.00031	1.35308 ± 0.00031	–	–	–
